Assay results as given in patent US20240270759A1, “Preparation of SHP2 phosphatase inhibitors and its applications” (Ya Therapeutics Inc, priority 2021, published 2024).

What follows are compounds tested against T1, SHP2 full-length protein (Homo sapiens, UniProt Q06124) (assay: SHP2 allosteric inhibition experiment (Homogeneous Full Length SHP-2 Assay Kit)). Details: full-length SHP2 0.06 nM with SHP-2 activating peptide; ten-point, 1 μM to 0.05 nM; read-out: IC50 Values of Compounds Inhibiting SHP2.
T1 construct: purchased BPS Bioscience #79330
T1 sequence (Q06124 1-593): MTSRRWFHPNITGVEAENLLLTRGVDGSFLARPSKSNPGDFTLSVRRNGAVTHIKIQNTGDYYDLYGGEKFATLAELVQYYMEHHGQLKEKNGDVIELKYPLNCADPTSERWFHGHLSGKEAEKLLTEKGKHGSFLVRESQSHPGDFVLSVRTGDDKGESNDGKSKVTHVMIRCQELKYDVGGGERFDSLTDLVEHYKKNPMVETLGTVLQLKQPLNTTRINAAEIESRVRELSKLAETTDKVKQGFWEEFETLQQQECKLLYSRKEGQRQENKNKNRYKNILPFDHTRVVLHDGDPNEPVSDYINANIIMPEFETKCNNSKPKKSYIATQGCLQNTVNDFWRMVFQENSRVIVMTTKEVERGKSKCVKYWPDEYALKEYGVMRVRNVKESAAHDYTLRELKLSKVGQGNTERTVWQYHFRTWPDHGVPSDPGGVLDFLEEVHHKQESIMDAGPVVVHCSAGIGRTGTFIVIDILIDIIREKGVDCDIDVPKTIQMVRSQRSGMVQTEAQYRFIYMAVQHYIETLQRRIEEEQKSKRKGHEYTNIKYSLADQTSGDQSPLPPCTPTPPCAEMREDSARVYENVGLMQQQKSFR
Type: biochemical
Source text: The following further describes and explains the present invention in combination with test examples, but these examples are not meant to limit the scope of the present invention. SHP2 allosteric inhibition experiment
The purpose of this test is to measure the ability of the compounds to inhibit the allosteric activity of the SHP2 full-length protein. Experimental equipment: a centrifuge (5810R) is purchased from Eppendorf Company; pipettes are purchased from Eppendorf Company and Rainin Company, and microplate readers are purchased from BioTek Company of the United States, SynergyH1 multimode microplate reader.
Experimental method: Homogeneous Full Length SHP-2 Assay Kit (BPS Bioscience, #79330) is used to detect SHP2 activity in vitro. First, add 18 μL of Master Mix to 96-well low-adsorption microplate (NUNC, #267342), that is, 0.5 μL of SHP-2 activating Peptide and 5 mM DTT are included in the reaction buffer with a final concentration of 1×. After centrifugation, add 5 μL of the compound to be tested in DMSO (final DMSO content is 1% (V/V) in each well: dissolve the compound to be tested in DMSO to 1 mM, conduct triple dilution with a total of 10 concentration levels ranging from 1 μM to 0.05 nM in the reaction buffer. After diluting SHP2 in 1× reaction buffer to a final concentration of 0.06 nM, add it to the reaction microwell plate, 2 μL per well. Set a full activity control ([…]) and a full inhibition control (without SHP-2) on the reaction plate, and incubate the reaction mixture at room temperature for 60 minutes after centrifugation.
After incubation, add 25 μL of Substrate solution to each well, containing Substrate with a final concentration of 10 μM and DTT with a final concentration of 5 mM, and after centrifugation, continue to incubate at room temperature for 30 minutes. After the reaction, set the excitation wavelength at 340 nm, the emission wavelength at 455 nm, and the gain value to 75 on the Synergy H1 microplate reader (Biotek) for reading.
Take the full activity control and full inhibition control as the values of Max and Min, and calculate the percentage inhibition rate of the wells treated with the compound based on the positive control wells (DMSO control wells) and negative control wells (no kinase added) on the reaction plate, (inhibition rate percentage=100−[(test compound−Min average value)/(Max average value−Min average value)]×100%. IC50 values of test compounds are calculated by fitting percentage of inhibition and ten-point concentration data to a 4-parameter nonlinear logic formula using GraphPad prism.

| Structure (SMILES) | IC50 [nM] |
| --- | --- |
| C[C@@H]1OCC2(CCN(c3ccc4c(=O)n(-c5cccc(Cl)c5Cl)c(=O)[nH]c4c3)CC2)C1N (stereo in doubt) [Compound 1, 7-((3S,4S)-4-amino-3-methyl-2-oxa-8-azaspiro[4.5]decane-8-yl)-3-(2,3-dichlorophenyl)quinazoline-2,4(1H,3H)-dione] | ≤ 10 |
| NC1COCC12CCN(c1ccc3c(=O)n(-c4cccc(Cl)c4Cl)c(=O)[nH]c3c1)CC2 (stereo in doubt) [Compound 2, (S)-7-(4-amino-2-oxa-8-azaspiro[4.5]decane-8-yl)-3-(2,3-dichlorophenyl)quinazoline-2,4(1H,3H)-dione] | ≤ 10 |
| Nc1nccc(-n2c(=O)[nH]c3cc(N4CCC5(CC4)COCC5N)ccc3c2=O)c1Cl (stereo in doubt) [Compound 3, (S)-3-(2-amino-3-chloropyridine-4-yl)-7-(4-amino-2-oxa-8-azaspiro[4.5]decane-8-yl)q uinazoline-2,4(1H,3H)-dione] | ≤ 10 |
| NC1c2cnccc2CC12CCN(c1ccc3c(=O)n(-c4cccc(Cl)c4Cl)c(=O)[nH]c3c1)CC2 (stereo in doubt) [Compound 6, (S)-7-(7-Amino-5,7-dihydrospiro [cyclopenta[c]pyridine-6,4′-piperidine]-1′-yl)-3-(2,3-dichlorophenyl)quinazoline-2,4(1H,3H)-dione] | ≤ 10 |
| NC1c2cccnc2CC12CCN(c1ccc3c(=O)n(-c4cccc(Cl)c4Cl)c(=O)[nH]c3c1)CC2 (stereo in doubt) [Compound 7, (S)-7-(5-Amino-5,7-dihydrospiro [cyclopenta[b]pyridine-6,4′-piperidine]-1′-yl)-3-(2,3-dichlorophenyl)quinazoline-2,4(1H,3H)-dione] | ≤ 10 |
| NC1c2ncccc2CC12CCN(c1ccc3c(=O)n(-c4cccc(Cl)c4Cl)c(=O)[nH]c3c1)CC2 (stereo in doubt) [Compound 8, (S)-7-(7-Amino-5,7-dihydrospiro[cyclopenta[b]pyridine-6,4′-piperidine]-1′-yl)-3-(2,3-dichlorophenyl)quinazoline-2,4(1H,3H)-dione] | ≤ 10 |
| N[C@H]1c2ccncc2CC12CCN(c1ccc3c(=O)n(-c4cccc(Cl)c4Cl)c(=O)[nH]c3c1)CC2 [Compound 5, (S)-7-(5-Amino-5,7-dihydrospiro[cyclopenta[c]pyridine-6,4′-piperidine]-1′-yl)-3-(2,3-dichlorophenyl)auinazoline-2.4(1H,3H)-dione] | ≤ 10 |
| CC1(N)CCN(c2cnc3c(=O)n(-c4cccc(Cl)c4Cl)c(=O)[nH]c3n2)CC1 [Compound 11] | 10 to 100 |
| N[C@@H]1c2ccccc2CC12CCN(c1cnc3c(=O)n(-c4cccc(Cl)c4Cl)c(=O)[nH]c3n1)CC2 [Compound 13, (S)-7-(1-amino-1,3-dihydrospiro[indene-2,4′-piperidine]-1′-yl)-3-(2,3-dichlorophenyl) pteridine-2,4(1H,3H)-dione] | 10 to 100 |
| N[C@@H]1c2cccnc2CC12CCN(c1cnc3c(=O)n(-c4cccc(Cl)c4Cl)c(=O)[nH]c3n1)CC2 [Compound 14, (S)-7-(5-Amino-5,7-dihydrospiro [cyclopenta[b]pyridine-6,4′-piperidine]-1′-yl)-3-(2,3-dichlorophenyl)pteridine-2,4(1 H,3H)-dione] | 10 to 100 |
| N[C@@H]1c2ccncc2CC12CCN(c1cnc3c(=O)n(-c4cccc(Cl)c4Cl)c(=O)[nH]c3n1)CC2 [Compound 15, (S)-7-(5-Amino-5,7-dihydrospiro [cyclopenta[c]pyridine-6,4′-piperidine]-1′-yl)-3-(2,3-dichlorophenyl)pteridine-2,4(1H,3H)-dione] | 10 to 100 |
| N[C@@H]1c2cnccc2CC12CCN(c1cnc3c(=O)n(-c4cccc(Cl)c4Cl)c(=O)[nH]c3n1)CC2 [Compound 16, (S)-7-(7-Amino-5,7-dihydrospiro [cyclopenta[c]pyridine-6,4′-piperidine]-1′-yl)-3-(2,3-dichlorophenyl)pteridine-2,4(1H,3H)-dione] | 10 to 100 |

Continued, values first:

| IC50 [nM] | Structure (SMILES) |
| --- | --- |
| ≤ 10 | C[C@@H]1OCC2(CCN(c3cnc4c(=O)n(-c5ccnc(N)c5Cl)c(=O)[nH]c4n3)CC2)[C@@H]1N [Compound 17, 3-(2-amino-3-chloropyridine-4-yl)-7-((3S,4S)-4-amino-3-methyl-2-oxa-8-azaspiro[4.5]decane-8-yl)pteridine-2,4(1H,3H)-dione] |
| ≤ 10 | Nc1nccc(-n2c(=O)[nH]c3nc(N4CCC5(CC4)Cc4ccccc4[C@H]5N)cnc3c2=O)c1Cl [Compound 18, (S)-7-(1-amino-1,3-dihydrospiro[indene-2,4′-piperidine]-1′-yl)-3-(2-amino-3-chloropyridine-4-yl)pteridine-2,4(1H,3H)-dione] |
| ≤ 10 | Nc1nccc(-n2c(=O)[nH]c3nc(N4CCC5(CC4)Cc4ncccc4[C@H]5N)cnc3c2=O)c1Cl [Compound 19, (S)-3-(2-amino-3-chloropyridine-4-yl)-7-(5-amino-5,7-dihydrospiro[cyclopenta[b]pyridine-6,4′-piperidine]-1′-yl)pteridine-2,4(1H,3H)-dione] |
| ≤ 10 | Nc1nccc(-n2c(=O)[nH]c3nc(N4CCC5(CC4)Cc4cnccc4[C@H]5N)cnc3c2=O)c1Cl [Compound 20, (S)-3-(2-amino-3-chloropyridine-4-yl)-7-(5-amino-5,7-dihydrospiro[cyclopenta[c]pyridine-6,4′-piperidine]-1′-yl)pteridine-2,4(1H,3H)-dione] |
| ≤ 10 | Nc1nccc(-n2c(=O)[nH]c3nc(N4CCC5(CC4)Cc4ccncc4[C@H]5N)cnc3c2=O)c1Cl [Compound 21, (S)-3-(2-amino-3-chloropyridine-4-yl)-7-(7-amino-5,7-dihydrospiro[cyclopenta[c]pyridine-6,4′-piperidine]-1′-yl)pteridine-2,4(1H,3H)-dione] |
| ≤ 10 | Nc1nccc(-n2c(=O)[nH]c3nc(N4CCC5(CC4)Cc4cccnc4[C@H]5N)cnc3c2=O)c1Cl [Compound 22, (S)-3-(2-amino-3-chloropyridine-4-yl)-7-(7-amino-5,7-dihydrospiro[cyclopenta[b]pyridine-6,4′-piperidine]-1′-yl)pteridine-2,4(1H,3H)-dione] |
| ≤ 10 | C[C@@H]1OCC2(CCN(c3cnc4c(=O)n(-c5ccnc(NC6CC6)c5Cl)c(=O)[nH]c4n3)CC2)[C@@H]1N [Compound 23] |
| ≤ 10 | N[C@@H]1c2ccncc2CC12CCN(c1cnc3c(=O)n(-c4ccnc(NC5CC5)c4Cl)c(=O)[nH]c3n1)CC2 [Compound 24] |
| ≤ 10 | C[C@@H]1OCC2(CCN(c3ccc4c(=O)n(-c5cccc(Cl)c5Cl)c(=O)[nH]c4n3)CC2)[C@@H]1N [Compound 25, 7-((3S,4S)-4-amino-3-methyl-2-oxa-8-azaspiro[4.5]decane-8-yl)-3-(2,3-dichlorophenyl)pyridinyl[2,3-d]pyrimidine-2,4(1H,3H)-dione] |
| ≤ 10 | N[C@@H]1c2ccncc2CC12CCN(c1ccc3c(=O)n(-c4cccc(Cl)c4Cl)c(=O)[nH]c3n1)CC2 [Compound 26, (S)-7-(5-Amino-5,7-dihydrospiro [cyclopenta[c]pyridine-6,4′-piperidine]-1′-yl)-3-(2,3-dichlorophenyl)pyridinyl[2,3-d]pyrimidine-2,4(1H,3H)-dione] |
| ≤ 10 | Nc1nccc(-n2c(=O)[nH]c3nc(N4CCC5(CC4)Cc4cnccc4[C@H]5N)ccc3c2=O)c1Cl [Compound 27, (S)-3-(2-amino-3-chloropyridine-4-yl)-7-(5-amino-5,7-dihydrospiro[cyclopenta[c]pyridine-6,4′-piperidine]-1′-yl) pyridinyl[2,3-d]pyrimidine-2,4(1H,3H)-dione] |
| ≤ 10 | N[C@@H]1c2ccncc2CC12CCN(c1ccc3c(=O)n(-c4ccnc(NC5CC5)c4Cl)c(=O)[nH]c3n1)CC2 [Compound 28] |
